This is an account of results in patent US6506876B1, “LTA4 hydrolase inhibitor pharmaceutical compositions and methods of use” (G.D. Searle & Co., priority 1994, dated 2003).

The structures appear in SMILES notation.

For the first test, the system named is LTB4 production in mouse blood (LTA4 hydrolase). Put plainly: Ex vivo LTB4 production by calcium ionophore stimulated mouse blood after oral dosing. It is filed as in vivo. The following applies: Mus musculus, po, 1 h, read-out: Murine Ex Vivo LTB4 Inhibition % I LTB4. Here is the method:
Ex Vivo LTB4 and Thromboxane Production by Calcium Ionophore Stimulated Mouse Blood for LTA4 Hydrolase Inhibitor Activity
Leukotriene A4 hydrolase inhibitor compounds of the present invention were diluted to a predetermined concentration in phosphate buffered saline containing 2% DMSO and 1% Tween 80. The compounds were administered by oral gavage to adult male outbred mice weighing approximately 20-30 gm at a dose of 10 mg/kg body weight. (Compounds given at a dose of 50 mg/kg body weight are designtated in following Table by the symbol, *.) Sixty (60) minutes after administration of an LTA4 inhibitor compound of the invention, blood was collected (into heparin-containing tubes) from the retroorbital sinus. […] The mixture was incubated for 10 minutes at 37° C. in a humidified incubator. The reaction was terminated by centrifugation (833 g, 10 minutes at 4° C.). Supernatants were analyzed for LTB4 and thromboxane by commercially available enzyme-linked immunoassays (Caymen Chemical Co., Ann Arbor, Mich.] in accordance with the manufacturer's instructions. The percent inhibition was determined by comparison to animals treated identically except that the solution admininstered by oral gavage was devoid of inhibitor compound.
As to `c1ccc(Oc2ccc(OCCN3CCCC3)cc2)cc1` [Example 44], the inhibition in vivo at 10 mg/kg was determined as 25%.
Turning to `c1nc(Cc2ccc(OCCN3CCCC3)cc2)cs1` [Example 49, 4-[[4-[2-(1-pyrrolidinyl)ethoxy]phenyl]methyl]thiazole], the inhibition in vivo at 10 mg/kg is 46%.
Take `c1ccc(Cc2ccc(OCCN3CCCC3)nc2)cc1` [Example 112]: the inhibition in vivo at 50 mg/kg is 82%.
Consider `c1csc(Cc2ccc(OCCN3CCCC3)cc2)n1` [Example 121], for which the inhibition in vivo at 10 mg/kg was found to be 48%.
With `c1ncc(Cc2ccc(OCCN3CCCC3)cc2)s1` [Example 122], the inhibition in vivo at 10 mg/kg came to 57%.
Same read-out and setting: the figure for `c1cncc(Cc2ccc(OCCN3CCCC3)cc2)c1` [Example 125] is 46%; for `c1cc(Cc2ccc(OCCN3CCCC3)cc2)cs1` [Example 134] it is 63%.
The same measure, in the same setting: the figure for `COC(=O)CC1CC2CC1CN2CCOc1ccc(Cc2ccccc2)cc1` (stereo not shown) [Example 304] is 80%; for `c1ccc(Cc2ccc(OCCN3CCCCC3)cc2)cc1` [Example 401] it is 23%.
The same measure, in the same setting: the result for `CC1CCCC(C)N1CCOc1ccc(Cc2ccccc2)cc1` (stereo not shown) [Example 402] reads 58%; that for `c1ccc(Cc2ccc(OCCN3CCC(c4nnn[nH]4)CC3)cc2)cc1` [Example 450], 91%.

The test is the same for the next values; noted with them: Mus musculus, po, 1 h; read-out: Murine Ex Vivo LTB4 Inhibition % I LTB4.
With `CN(CCCOc1ccc(Cc2ccc(F)cc2)cc1)CCC(=O)O` [Example 336], the inhibition in vivo at 10 mg/kg is 99%.
As for `CNC(=O)C1CCN(CCOc2ccc(Cc3ccccc3)cc2)CC1` [Example 420], the inhibition in vivo at 10 mg/kg was 93%.

Staying with this test, now noted: mouse, oral gavage, 1 hour after administration of 10 mg/kg.
Regarding `FC(F)(c1ccccc1)c1ccc(OCCN2CCCC2)cc1` [Example 67, 1-[2-[4-[(difluoro)phenylmethyl]phenoxy]ethyl]pyrrolidine], the “Murine Ex Vivo LTB4 Inhibition % I LTB4” value is recorded as 0%.

The same test, now with this note: mouse, oral gavage, 1 hour after administration of 10 mg/kg; read-out: Murine Ex Vivo LTB4 Inhibition % I LTB4.
Turning to `C[C@@H]1C[C@H](C(N)=O)CCN1CCOc1ccc(Cc2ccccc2)cc1` (relative stereo) [Example 297], the inhibition in vivo at 10 mg/kg was 63%.
As to `C[C@H]1C[C@@H](O)CCN1CCOc1ccc(Cc2ccccc2)cc1` (relative stereo) [Example 465], the inhibition in vivo at 10 mg/kg is 38%.
For `CC(=O)N[C@@H]1CCN(CCOc2ccc(Cc3ccccc3)cc2)[C@@H](C)C1` (relative stereo) [Example 467], the inhibition in vivo at 10 mg/kg turned out to be 71%.
The same measure, in the same setting: the figure for `c1ccc(Cc2ccc(OCCCn3cnc4ncccc43)cc2)cc1` [341 B] is 29%; for `c1ccc(COc2ccc(OCCn3cnc4ncccc43)cc2)cc1` [346 B] it is 23%; for `c1ccc(COc2ccc(OCCn3cnc4ccncc43)cc2)cc1` [347 A] it is 34%.
As to `c1ccc(COc2ccc(OCCn3cnc4cnccc43)cc2)cc1` [347 B], the inhibition in vivo at 10 mg/kg was found to be 43%.
Same read-out and setting: the result for `c1ccc(COc2ccc(OCCn3ccc4ncnc-4c3)cc2)cc1` [347 C] reads 52%; that for `c1ccc(Oc2ccc(OCCn3cnc4cccnc43)cc2)cc1` [348 A], 42%; that for `c1ccc(Oc2ccc(OCCn3cnc4ncccc43)cc2)cc1` [348 B], 22%.
As to `c1ccc(Oc2ccc(OCCn3cccc4ncnc3-4)cc2)cc1` [348 C], the inhibition in vivo at 10 mg/kg came to 77%.
For the molecule `COC(=O)CC1CCN(CCOc2ccc(Cc3ccccc3)cc2)C1` (stereo not shown) [Example 275], the inhibition in vivo at 10 mg/kg was found to be 75%.
Same read-out and setting: the result for `COC(=O)C1CCN(CCOc2ccc(Cc3ccccc3)cc2)C1` (stereo not shown) [Example 276] reads 75%; that for `CCOC(=O)CCN(C)CCCOc1ccc(Cc2ccccc2)cc1` [Example 412], 72%.
For the molecule `NC(=O)CC1CCN(CCOc2ccc(Cc3ccccc3)cc2)C1` (stereo not shown) [Example 426], the inhibition in vivo at 10 mg/kg turned out to be 40%.

Another test deals with T1, recombinant human LTA4 hydrolase (rhLTA4H) (Homo sapiens, UniProt P09960).
T1 sequence (P09960 1-611): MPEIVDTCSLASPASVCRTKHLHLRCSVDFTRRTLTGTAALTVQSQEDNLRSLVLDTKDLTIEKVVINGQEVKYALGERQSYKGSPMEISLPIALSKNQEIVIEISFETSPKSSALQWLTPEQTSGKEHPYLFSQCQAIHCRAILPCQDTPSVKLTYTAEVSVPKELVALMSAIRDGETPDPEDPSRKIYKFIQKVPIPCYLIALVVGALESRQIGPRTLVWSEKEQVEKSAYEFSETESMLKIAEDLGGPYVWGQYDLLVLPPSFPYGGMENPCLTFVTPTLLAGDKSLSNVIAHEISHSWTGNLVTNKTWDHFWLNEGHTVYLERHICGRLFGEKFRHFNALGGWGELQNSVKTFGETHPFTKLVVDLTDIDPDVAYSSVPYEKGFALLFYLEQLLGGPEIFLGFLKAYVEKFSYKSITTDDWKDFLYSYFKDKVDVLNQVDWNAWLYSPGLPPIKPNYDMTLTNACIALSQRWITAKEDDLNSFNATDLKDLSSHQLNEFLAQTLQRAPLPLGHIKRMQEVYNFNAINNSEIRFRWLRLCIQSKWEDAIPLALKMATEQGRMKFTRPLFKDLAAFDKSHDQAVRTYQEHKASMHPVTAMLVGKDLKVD
Put plainly: Recombinant human LTA4 hydrolase assay for LTA4 hydrolase inhibitor activity. The following applies: Recombinant Human LTA4 Hydrolase Assay IC50 LTA4H, recombinant hLTA4H.
Experimental: One or more predetermined amounts of a compound of the invention were incubated in assay buffer (0.1 M potassium phosphate, 5 mg/ml fatty acid free BSA, 10% DMSO, pH 7.4) for 10 minutes at room temperature with 250 ng of recombinant hLTA4H to allow binding, if any, between the enzyme and inhibitor. The stock enzyme solution was 1 mg/ml LTA4 hydrolase, 50 mM Tris, pH 8.0, 150 mM NaCl, 2.5 mM beta-mercaptoethanol, 50% glycerol. […] Each reaction was carried out at room temperature for 10 minutes. The reaction was stopped by diluting 25 μl of the reaction mixture with 500 μl of the assay buffer without DMSO. LTB4 was quantified in the diluted sample by a commercially available enzyme-linked immunoassay [Caymen Chemical Co., Ann Arbor, Mich.] using the method recommended in the manufacturer's instructions and compared to the amount of LTB4 produced in a negative control (i.e., essentially identical conditions except without addition of an inhibitor compound). The IC50 was routinely calculated from the data produced.
Regarding `C[C@@H]1C[C@H](C(N)=O)CCN1CCOc1ccc(Cc2ccccc2)cc1` (relative stereo) [Example 297], the IC50 (as a rule, the concentration at which inhibition is half-maximal) worked out at 120 nM.
The same measure, in the same setting: the result for `C[C@H]1C[C@@H](O)CCN1CCOc1ccc(Cc2ccccc2)cc1` (relative stereo) [Example 465] reads 300 nM; that for `CC(=O)N[C@@H]1CCN(CCOc2ccc(Cc3ccccc3)cc2)[C@@H](C)C1` (relative stereo) [Example 467], 60 nM; that for `c1ccc(Cc2ccc(OCCCn3cnc4ncccc43)cc2)cc1` [341 B], 140 nM.
Still for that read-out and setting: the result for `c1ccc(COc2ccc(OCCn3cnc4ncccc43)cc2)cc1` [346 B] reads 1900 nM; that for `c1ccc(COc2ccc(OCCn3cnc4ccncc43)cc2)cc1` [347 A], 1800 nM; that for `c1ccc(COc2ccc(OCCn3cnc4cnccc43)cc2)cc1` [347 B], 1900 nM.
Same read-out and setting: the result for `c1ccc(COc2ccc(OCCn3ccc4ncnc-4c3)cc2)cc1` [347 C] reads 5 nM.
In the case of `c1ccc(Oc2ccc(OCCn3cnc4cccnc43)cc2)cc1` [348 A], the IC50 amounted to 4600 nM.
The same measure, in the same setting: the figure for `c1ccc(Oc2ccc(OCCn3cnc4ncccc43)cc2)cc1` [348 B] is 440 nM; for `c1ccc(Oc2ccc(OCCn3cccc4ncnc3-4)cc2)cc1` [348 C] it is 290 nM.
Still for that read-out and setting: the figure for `COC(=O)CCN(C)CCCOc1ccc(Cc2ccc(F)cc2)cc1` [Example 332] is 14000 nM; for `c1ccc(Cc2ccc(OCCn3ccc4ncccc43)cc2)cc1` [Example 342] it is 970 nM; for `c1ccc(Oc2ccc(OCCn3cnc4ccccc43)cc2)cc1` [Example 344] it is 11100 nM.
Take `c1ccc(Cc2ccc(OCCn3ccnc3)cc2)cc1` [Example 352]: the IC50 turned out to be 120 nM.
On to `[O-][n+]1ccc2ncn(CCOc3ccc(Cc4ccccc4)cc3)c2c1` [Example 364], for which the IC50 amounted to 36 nM.
Same read-out and setting: the result for `O=C(O)C1CCN(CCOc2ccc(Cc3ccccc3)s2)CC1` [Example 371] reads 860 nM.
In the case of `CC(CN1CCCCC1)Oc1ccc(Cc2ccccc2)cc1` (stereo not shown) [Example 403], the IC50 came to 750 nM.
On to `C=CCN(CCCOc1ccc(Cc2ccccc2)cc1)CCC(=O)OCc1ccccc1` [Example 409], for which the IC50 was found to be 12000 nM.
Same read-out and setting: the figure for `C=CCN(CCCCOc1ccc(Cc2ccccc2)cc1)CCC(=O)OCC` [Example 410, Ethyl [[4-[4-(Phenylmethyl)phenoxyl]-butyl](2-propenyl)amino]propanoate] is 33000 nM; for `CN(CCCOc1ccc(Cc2ccccc2)cc1)CCC(=O)OCc1ccccc1` [Example 411] it is 2400 nM; for `CCOC(=O)CCN(CCCOc1ccc(Cc2ccccc2)cc1)Cc1cccnc1` [Example 414] it is 11000 nM.
On the same count and under the same terms, the figure for `CCOC(=O)CCN(C)CCCCOc1ccc(Cc2ccccc2)cc1` [Example 415] is 5000 nM; for `CC(CN(C)CCCOc1ccc(Cc2ccccc2)cc1)C(=O)OCc1ccccc1` (stereo not shown) [Example 417] it is 4300 nM; for `CN(CCCOc1ccc(Cc2ccccc2)cc1)CC(C)(C)C(=O)OCc1ccccc1` [Example 418] it is 12000 nM.
The same measure, in the same setting: the figure for `NC(=O)CCNC(=O)C1CCN(CCOc2ccc(Cc3ccccc3)cc2)CC1` [Example 421] is 410 nM; for `NC(=O)CCNCCCOc1ccc(Cc2ccccc2)cc1` [Example 423] it is 330 nM.
With `O=C(O)C1CCN(CCOc2ccc(Cc3cccc(F)c3)cc2)CC1` [Example 436], the IC50 was found to be 720 nM.
On to `O=C(O)C1CCN(CCOc2ccc(Cc3ccc(F)cc3)cc2)CC1` [Example 438], for which the IC50 turned out to be 3200 nM.
With `O=C(O)C1CCN(CCOc2ccc(Cc3ccsc3)cc2)CC1` [Example 439], the IC50 is 18000 nM.
Take `COC(=O)C1CC2CC1CN2CCOc1ccc(Cc2ccccc2)cc1` (stereo not shown) [Example 440]: the IC50 is 30 nM.
For `CC1CC(C#N)CCN1CCOc1ccc(Cc2ccccc2)cc1` (stereo not shown) [Example 444], the IC50 turned out to be 300 nM.
Still for that read-out and setting: the result for `CC1CC(C(N)=NO)CCN1CCOc1ccc(Cc2ccccc2)cc1` (stereo not shown) [Example 445] reads 330 nM; that for `N=C(N)C1CCN(CCOc2ccc(Cc3ccccc3)cc2)CC1` [Example 449], 140 nM.
Still for that read-out and setting: the figure for `NC(=S)N1CCN(CCOc2ccc(Cc3ccccc3)cc2)CC1` [Example 458] is 560 nM.
`CS(=O)(=O)N1CCN(CCOc2ccc(Cc3ccccc3)cc2)CC1` [Example 460]: the IC50 was 84000 nM.
Still for that read-out and setting: the figure for `COC(=O)C1CC2CC1CN(CCOc1ccc(Cc3ccccc3)cc1)C2` (stereo not shown) [Example 504] is 29 nM.

The same test, now with this note: read-out: Recombinant Human LTA4 Hydrolase Assay, % at 3 μM.
For `c1ccc(Oc2ccc(OCCCn3cnc4ccccc43)cc2)cc1` [Example 343], the inhibition at 3 µM worked out at 40%.
For the molecule `c1ccc(COc2ccc(OCCn3cnc4ccccc43)cc2)cc1` [Example 345], the inhibition at 3 µM was 35%.

The same test, now with this note: read-out: Recombinant Human LTA4 Hydrolase Assay, % at 100 μM.
As for `O=C(CNCCOc1ccc(Cc2ccccc2)cc1)OCc1ccccc1` [Example 319], the inhibition at 100 µM was 47%.
In the case of `C#CC(CC(=O)OCC)NCCOc1ccc(Cc2ccccc2)cc1` (stereo not shown) [Example 408], the inhibition at 100 µM is 76%.
